Patent US20080076750A1, “Azetidinone Derivatives and Methods of Use Thereof” (priority 2006, published 2008)
pIC50, pKi: −log10 of the molar value. Where two headings read alike, the source gives them in different places.

Experiments:
[1] = biological target: T1, human Cav3.2 (Homo sapiens, UniProt O95180); test: IonWorks Screen for hCaV3.2; format: cell-based; settings: IonWorks HT, HEK cells expressing human Cav3.2, 10 minutes incubation, pulse 10; read-out: IW hCav3.2 IC50
T1 construct: expressed in transfected cells
From the text: Functional evaluation of voltage-gated ion channels can be used to determine potency and/or single concentration efficacy of the Azetidinone Derivatives. Two different methodologies can be used to measure ion currents: the Ionworks HT (Molecular Devices, Sunnyvale, Calif.) a moderate throughput voltage clamp screening platform that utilizes 96-well compound plates and conventional whole cell patch clamp for lower throughput, higher fidelity determinations.
HEK cells are transiently transfected and then selected for stable heterologous expression of different channel proteins of interest. Calcium channel cell lines expressed a resting potassium current, human Kir2.1, and the pore forming α-subunit of voltage-gated calcium channels. In the case of Cav2.1 cells the auxiliary subunit, β2α, is also expressed. Calcium channel lines that are used to generate the data will express either human Cav3.2, rat Cav3.2 or human Cav2.1. The human heart sodium channel, hNav1.5, are stably expressed in CHO cells.
Cell lines can be grown at 37° C. in humidified incubators, equilibrated with 95% air/5% CO2. CHO cells can be grown in Ham's F-12 medium. HEK cells can be grown in DMEM. All media are supplemented with 10% heat-inactivated fetal bovine serum, penicillin, streptomycin and appropriate selection antibiotics (zeocin, geneticin and/or hygromycin). Cells are passaged when 80% confluent or less.
IonWorks Screen for hCaV3.2
The extracellular buffer for experiments using this instrument contained the following (mM) (NaCl 125, HEPES 10, KCl 5.4, CaCl2 1.8, MgCl2 1.8, 0.2 BaCl2 pH 7.35). The IonWorks uses amphotericin to gain electrical access to the cell interior. The internal solution contained (mM concentrations): 130 K-gluconate, 20 KCl, 5 HEPES-KOH (pH 7.25), 2 CaCl2, 1 MgCl2. Amphotericin added at 5 mg in 65 mL when present (in 650 μL DMSO). All internal and external solutions for this experiment contain 1% DMSO. Cells were acutely trypsinized from a T-75 flask and resuspended in extracellular buffer at a density of 2×10^5 cells/mL.
Experiments were performed at room temperature. Transmembrane potential was held at −100 mV for 5 seconds prior to running the voltage protocol. During this time leak currents were measured during a step to −110 mV (200 milliseconds), T-type calcium currents were activated with a 250 millisecond step to −20 mV. This depolarization step was repeated for a total of 10 pulses with an interpulse interval of 1 second. Data were excluded if the following acceptance criteria were not met: total resistance for the pre-compound scan>65 MΩ, pre-compound current>250 pA, post compound total resistance>50 MΩ.
T-type currents were measured as the peak inward current minus the current at the end of the 250 msec step to −20 mV. After the recoding configuration was established there was a pre-compound measurement of current amplitude. Compound was added as a 3× solution containing 1% DMSO. After incubation with compound for 10 minutes currents were measured again. The current amplitude after compound addition was divided by the pre-compound current for pulse 10 to determine the fraction of current remaining after compound addition. For each compound, 8-point concentration-effect relationships were measured with ½ log serial dilutions.

[2] = biological target: T2, TRPV1 (Homo sapiens, UniProt Q8NER1); test: TRPV1 Screening Assay (FLIPR); format: cell-based; settings: HEK293-TetOFF-TRPV1, capsaicin (50 nM final), read-out: VR1 flipr CAPSAICIN IC50
T2 construct: expressed in transfected cells; host or cells: HEK293-Tet-OFF
From the text: • 1) Cell line: HEK293-Tet^OFF-TRPV1 • 2) Media: MEM (Invitrogen) • 3) 10% Tet-FBS (Clontech #8630-1) • 4) Fungizone (Gibco #15290-018 (100×)) • 5) Penn/Strep (Gibco #15140-122 (100×)) • 6) Geneticin (Gibco #10131-027 (100×)) • 7) Hygromycin (Clontech #8057-1) • 8) Doxycycline (Clontech #8634-1) • 9) Trypsin/EDTA (Gibco #25200-056) • 10) 100 mm cell culture plates (Falcon #3003) • 11) 96-well poly-D-lysine plates (Fisher #08-774-256) • 12) Hank's Balanced Salt Solution (HBSS) (GIBCO #14025-092) • 13) HEPES Buffer (GIBCO #15630-080) • 14) 30% BSA (Research Organics #1334A) • 15) Probenecid (Sigma P-8761) • 16) Fluo-4, AM (50 μg) (Molecular robes F-23917) • 17) Pluronic F-127 20% (Molecular Probes P-3000). • 18) capsazepine (Sigma C-191) • 19) capsaicin (Sigma M-2028) • 20) compound plates (NUNC #442587) • 21) black pipet tips 96-well FLIPR (Robbins Scientific 1043-24-0) • 22) Additional reagents available from Fisher: methanol, DMSO, NaOH Reagent Preparation: 1) Cells: HEK293-Tet^OFF-TRPV11
• and Doxycycline 2.5 μg/mL final (from a 1000× stock in PBS) • Cells must be fed and/or split every 2-3 days (to maintain transcriptional repression with Doxycycline). • Must be split no more than 1:5 (50-75% confluency) to maintain growth and viability. • Grown on regular tissue culture plates (e.g. Falcon 3003-100 mm) • SpliT-cells via Trypsin/EDTA: incubate with trypsin at room temperature no longer than 5 min (HEK293 cells have a tendency to ball up if over trypsinized). • Two days prior to assay, the cells are split into 96-well plates in cell media in the absence of doxycycline at a concentration of 40,000 cells/well in a volume of 200 μL, 2) FLIPR buffer is prepared fresh:
Add 5 mL of Probenecid Solution, prepared as follows: 710 mg of probenecid (Sigma P-8761) is solubilized in 5 mL of 1 N NaOH, 5 mL of above buffer s added for final volume of 10 mL (of which 5 mL goes back into FLIPR buffer)
Combine 42 μL of dye mixture with 11 mL of FLIPR buffer/96-well plate.
Stock solution of 0.1 M capsaicin is prepared in MeOH (50 mg+1.6 mL MeOH). Store 50 μL aliquots at −80° C.
For assay: • a) Dilute stock by adding 0.8 μL into 1 mL of MeOH (final=80 μM). • b) Add 50 μL of diluted stock to 20 mL of FLIPR buffer (final=0.2 μM) • c) Agonist solution is added 150 μL/well to 96-well plate. • d) Final agonist concentration on cells will be 50 nM. […] Laser is adjusted upwards for an average signal≧10,000/well and less than 10% variability. 7) Compound addition conditions are as follows: • FLIPR setup (dual sequence parameters): • Sequence 1: • First interval 1 sec/60 counts • Second interval 6 sec/50 counts • Fluid addition=50 μL • Pipettor=110 μL • Dispense Speed=30 μL/sec • Sequence 2: • Second interval 1 sec/60 counts • Second interval 6 sec/40 counts • Fluid addition=50 μL • Pipettor height=140 μL • Dispense Speed=50 μL/sec Data Analysis:
1) Data from both additions is reported as Max-Min for each well

[3] = biological target: T2, TRPV1; test: TRPV1 Screening Assay (FLIPR); format: cell-based; settings: HEK293-TetOFF-TRPV1, PMA, read-out: VR1 flipr PMA IC50
[4] = biological target: T3, human NPC1L1 (Homo sapiens, UniProt Q9UHC9); test: NPC1L1 Binding Assay, human; settings: HEK-293 cells expressing human NPC1L1; competition with 250 nM BODIPY-labeled glucuronidated ezetimibe, 4 h at 37° C.
T3 construct: expressed in transfected cells; host or cells: HEK-293 (geneticin selection)
T3 sequence (Q9UHC9 22-1359): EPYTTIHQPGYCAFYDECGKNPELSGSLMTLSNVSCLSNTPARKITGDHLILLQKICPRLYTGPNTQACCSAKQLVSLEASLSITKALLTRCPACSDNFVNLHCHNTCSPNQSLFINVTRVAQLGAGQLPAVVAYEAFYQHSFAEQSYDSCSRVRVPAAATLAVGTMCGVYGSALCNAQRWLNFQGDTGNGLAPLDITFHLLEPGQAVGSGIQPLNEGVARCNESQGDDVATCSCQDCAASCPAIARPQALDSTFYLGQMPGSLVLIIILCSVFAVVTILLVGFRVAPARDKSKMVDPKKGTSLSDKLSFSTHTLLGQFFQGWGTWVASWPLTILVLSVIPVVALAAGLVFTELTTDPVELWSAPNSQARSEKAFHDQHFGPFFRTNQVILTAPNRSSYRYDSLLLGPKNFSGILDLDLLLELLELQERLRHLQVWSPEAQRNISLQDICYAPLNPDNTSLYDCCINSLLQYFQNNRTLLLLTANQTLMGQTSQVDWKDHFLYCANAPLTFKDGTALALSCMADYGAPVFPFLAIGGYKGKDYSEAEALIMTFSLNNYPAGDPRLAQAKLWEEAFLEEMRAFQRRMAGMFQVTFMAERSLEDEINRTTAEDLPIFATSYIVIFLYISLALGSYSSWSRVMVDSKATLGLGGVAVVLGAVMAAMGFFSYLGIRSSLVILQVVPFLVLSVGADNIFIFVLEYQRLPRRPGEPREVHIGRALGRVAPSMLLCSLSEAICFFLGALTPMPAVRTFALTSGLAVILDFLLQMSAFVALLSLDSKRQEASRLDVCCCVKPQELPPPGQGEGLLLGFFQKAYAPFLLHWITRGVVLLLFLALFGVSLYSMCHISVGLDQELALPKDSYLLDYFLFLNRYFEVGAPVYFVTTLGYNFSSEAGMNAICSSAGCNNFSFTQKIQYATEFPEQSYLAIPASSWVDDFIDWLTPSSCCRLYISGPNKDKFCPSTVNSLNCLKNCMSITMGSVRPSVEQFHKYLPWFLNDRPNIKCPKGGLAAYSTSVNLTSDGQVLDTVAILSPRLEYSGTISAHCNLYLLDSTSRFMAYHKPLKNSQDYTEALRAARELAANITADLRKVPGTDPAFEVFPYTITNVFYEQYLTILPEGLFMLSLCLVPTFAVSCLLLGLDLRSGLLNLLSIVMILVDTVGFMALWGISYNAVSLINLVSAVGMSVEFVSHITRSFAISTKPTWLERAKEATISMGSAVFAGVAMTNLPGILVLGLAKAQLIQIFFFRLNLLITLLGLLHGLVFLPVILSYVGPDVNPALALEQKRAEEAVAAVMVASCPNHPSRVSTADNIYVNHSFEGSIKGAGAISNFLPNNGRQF
Experimental: HEK-293 cells expressing human NPC1L1 were plated into 384-well black/clear plates (BD Biosciences, Bedford Mass.) for binding experiments the following day. Cell growth media (DMEM, 10% fetal calf serum, 1 mg/mL geneticin, 100 Units/mL penicillin) was aspirated. Cell growth media ([…]) containing 250 nM BODIPY-labeled glucuronidated ezetimibe was added to each well. Cell growth media ([…] containing the indicated concentration of compound was then added to the wells unlabeled glucuronidated ezetimibe […]) was used to determine nonspecific binding. The binding reaction was allowed to proceed for 4 h at 37° C. Subsequently the cell growth media was aspired and the cells washed once with PBS. The remaining fluorescent labeled glucuronidated ezetimibe bound to the cells was quantified using a FlexStation plate reader (Molecular Devices, Sunnyvale Calif.) to measure fluorescence intensity. Ki values were determined from competition binding curves (n=4 for each point) using Prism and Activity Base software.

T1 sequence (O95180 whole entry): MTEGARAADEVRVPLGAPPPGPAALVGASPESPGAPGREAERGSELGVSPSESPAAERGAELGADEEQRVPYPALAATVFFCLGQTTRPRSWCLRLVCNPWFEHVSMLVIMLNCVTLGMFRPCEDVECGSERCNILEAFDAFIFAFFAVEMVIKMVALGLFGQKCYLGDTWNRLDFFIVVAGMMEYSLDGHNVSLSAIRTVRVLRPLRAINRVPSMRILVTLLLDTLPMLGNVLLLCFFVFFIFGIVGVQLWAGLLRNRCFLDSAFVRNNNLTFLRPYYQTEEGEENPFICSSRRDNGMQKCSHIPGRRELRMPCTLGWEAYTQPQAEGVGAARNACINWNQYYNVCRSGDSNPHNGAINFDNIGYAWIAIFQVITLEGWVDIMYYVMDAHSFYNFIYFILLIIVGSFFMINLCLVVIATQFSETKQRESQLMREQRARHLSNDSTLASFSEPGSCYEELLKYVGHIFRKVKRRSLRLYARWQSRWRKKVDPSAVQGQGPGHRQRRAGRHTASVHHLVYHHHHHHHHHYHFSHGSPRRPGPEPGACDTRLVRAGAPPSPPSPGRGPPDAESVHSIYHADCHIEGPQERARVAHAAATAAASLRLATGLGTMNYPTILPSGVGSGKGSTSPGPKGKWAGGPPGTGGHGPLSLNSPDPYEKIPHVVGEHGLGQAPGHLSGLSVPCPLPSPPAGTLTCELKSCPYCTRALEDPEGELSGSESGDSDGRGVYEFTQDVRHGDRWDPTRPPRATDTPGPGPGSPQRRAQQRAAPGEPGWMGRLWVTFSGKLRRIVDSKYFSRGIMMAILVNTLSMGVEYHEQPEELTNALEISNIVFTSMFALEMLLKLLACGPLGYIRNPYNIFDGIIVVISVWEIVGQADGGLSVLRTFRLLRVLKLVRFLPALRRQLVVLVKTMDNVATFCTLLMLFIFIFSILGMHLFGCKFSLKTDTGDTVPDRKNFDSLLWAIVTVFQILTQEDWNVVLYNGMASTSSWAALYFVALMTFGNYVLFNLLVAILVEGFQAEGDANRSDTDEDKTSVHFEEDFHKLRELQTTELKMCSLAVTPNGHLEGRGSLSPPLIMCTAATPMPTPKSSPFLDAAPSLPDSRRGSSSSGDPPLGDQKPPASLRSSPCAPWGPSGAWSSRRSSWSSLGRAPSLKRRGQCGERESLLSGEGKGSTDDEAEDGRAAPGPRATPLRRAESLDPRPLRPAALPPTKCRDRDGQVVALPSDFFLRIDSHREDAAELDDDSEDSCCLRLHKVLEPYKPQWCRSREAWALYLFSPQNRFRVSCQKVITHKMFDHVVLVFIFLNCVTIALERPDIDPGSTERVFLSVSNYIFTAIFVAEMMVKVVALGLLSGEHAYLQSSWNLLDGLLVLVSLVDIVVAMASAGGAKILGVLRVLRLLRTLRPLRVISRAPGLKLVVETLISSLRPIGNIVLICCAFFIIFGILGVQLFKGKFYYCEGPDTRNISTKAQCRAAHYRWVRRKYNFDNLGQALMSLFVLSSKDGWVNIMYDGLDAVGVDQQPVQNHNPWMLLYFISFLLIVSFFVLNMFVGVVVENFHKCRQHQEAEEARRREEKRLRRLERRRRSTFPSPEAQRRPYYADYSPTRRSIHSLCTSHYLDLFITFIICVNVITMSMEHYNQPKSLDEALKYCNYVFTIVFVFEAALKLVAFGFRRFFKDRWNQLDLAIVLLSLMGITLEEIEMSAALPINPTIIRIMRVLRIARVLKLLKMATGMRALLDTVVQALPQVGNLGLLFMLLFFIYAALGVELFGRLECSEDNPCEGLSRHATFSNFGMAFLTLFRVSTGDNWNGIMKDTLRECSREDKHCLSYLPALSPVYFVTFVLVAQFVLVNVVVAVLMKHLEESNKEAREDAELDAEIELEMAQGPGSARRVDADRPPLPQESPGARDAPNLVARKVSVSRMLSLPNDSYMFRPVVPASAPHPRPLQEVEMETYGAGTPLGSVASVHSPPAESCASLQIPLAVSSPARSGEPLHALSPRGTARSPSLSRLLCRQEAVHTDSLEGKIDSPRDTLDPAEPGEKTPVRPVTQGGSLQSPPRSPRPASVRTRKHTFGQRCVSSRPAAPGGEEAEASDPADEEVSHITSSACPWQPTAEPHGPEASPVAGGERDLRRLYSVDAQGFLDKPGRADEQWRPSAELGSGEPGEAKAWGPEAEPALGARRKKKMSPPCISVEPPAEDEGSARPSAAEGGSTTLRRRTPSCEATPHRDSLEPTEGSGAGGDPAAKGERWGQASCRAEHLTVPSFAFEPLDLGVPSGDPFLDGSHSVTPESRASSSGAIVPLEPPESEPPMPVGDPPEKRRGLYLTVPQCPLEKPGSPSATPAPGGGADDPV
T2 sequence (Q8NER1 whole entry, species assumed): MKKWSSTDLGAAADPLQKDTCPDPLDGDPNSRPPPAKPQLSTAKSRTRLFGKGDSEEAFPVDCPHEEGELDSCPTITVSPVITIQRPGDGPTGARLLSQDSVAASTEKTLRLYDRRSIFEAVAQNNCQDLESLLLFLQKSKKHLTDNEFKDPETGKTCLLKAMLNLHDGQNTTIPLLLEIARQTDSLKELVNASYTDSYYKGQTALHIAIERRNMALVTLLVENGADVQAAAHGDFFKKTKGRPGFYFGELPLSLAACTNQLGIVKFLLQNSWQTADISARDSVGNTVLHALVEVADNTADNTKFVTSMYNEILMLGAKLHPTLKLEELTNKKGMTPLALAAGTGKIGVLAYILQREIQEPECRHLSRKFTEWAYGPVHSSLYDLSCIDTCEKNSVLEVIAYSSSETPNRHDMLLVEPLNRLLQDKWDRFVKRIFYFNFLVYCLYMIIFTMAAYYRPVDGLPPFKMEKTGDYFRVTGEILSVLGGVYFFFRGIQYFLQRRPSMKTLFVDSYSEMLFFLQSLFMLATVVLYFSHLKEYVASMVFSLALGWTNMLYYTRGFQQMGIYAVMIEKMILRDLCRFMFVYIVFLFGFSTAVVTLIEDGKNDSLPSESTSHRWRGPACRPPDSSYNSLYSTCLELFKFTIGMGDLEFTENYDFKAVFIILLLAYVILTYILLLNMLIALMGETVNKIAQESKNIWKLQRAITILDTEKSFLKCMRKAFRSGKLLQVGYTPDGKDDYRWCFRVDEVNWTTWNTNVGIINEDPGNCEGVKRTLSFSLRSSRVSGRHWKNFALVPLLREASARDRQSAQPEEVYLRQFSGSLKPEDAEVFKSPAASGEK

Structure (SMILES) | pIC50 [1] | pIC50 [2] | other results
O=C(Nc1ccc(F)c(F)c1)N1CCC2(CC1)C(=O)N(c1ccccc1)C2c1ccc(Cl)cc1 (stereo not shown) | 6.44 |  | 
CC(C)N1C(=O)C2(CCN(C(=O)Nc3ccc(Cl)cc3)CC2)C1c1ccc(Cl)cc1 (stereo not shown) | 6.37 |  | 
CC(C)N1C(=O)C2(CCN(C(=O)Nc3cc(Cl)cc(Cl)c3)CC2)C1c1ccc(Cl)cc1 (stereo not shown) | 6.67 |  | 
CC(C)N1C(=O)C2(CCN(C(=O)Nc3ccc(F)c(F)c3)CC2)C1c1ccc(Cl)cc1 (stereo not shown) | 6.52 |  | 
O=C(Nc1ccc(F)c(F)c1)N1CCC2(CC1)C(=O)N(c1ccc(F)cc1)C2c1ccc(Cl)cc1 (stereo not shown) | 6.53 |  | 
O=C(Nc1cc(F)cc(F)c1)N1CCC2(CC1)C(=O)N(c1ccc(F)cc1)C2c1ccc(Cl)cc1 (stereo not shown) | 6.30 |  | 
O=C(Nc1ccc(F)c(F)c1)N1CCC2(CC1)C(=O)N(c1ccc(F)cc1)C2c1ccccn1 (stereo not shown) | 6.31 |  | 
O=C(Nc1ccccc1)N1CCC2(CC1)C(=O)N(c1cccc(Cl)c1)C2c1ccccn1 (stereo not shown) | 6.62 |  | 
O=C(Nc1ccc(F)c(F)c1)N1CCC2(CC1)C(=O)N(c1cccc(Cl)c1)C2c1ccccn1 (stereo not shown) | 6.93 |  | 
O=C(Nc1ccc(C(F)(F)F)cc1)N1CCC2(CC1)C(=O)N(c1ccccc1)C2c1ccccc1 (stereo not shown) |  | 6.77 | 
O=C(Nc1ccc(C(F)(F)F)cc1)N1CCC2(CC1)C(=O)N(c1cncnc1)C2c1ccccc1 (stereo not shown) |  | 6.74 | pIC50 [3]: 6.68
O=C(Nc1cccc2ccccc12)N1CCC2(CC1)C(=O)N(c1ccccc1)C2c1ccccn1 (stereo not shown) |  | 6.70 | pIC50 [3]: 6.63
CC(C)c1ccc(NC(=O)N2CCC3(CC2)C(=O)N(c2cncnc2)C3c2ccccc2)cc1 (stereo not shown) |  | 6.62 | pIC50 [3]: 6.81
O=C(Nc1ccc(Oc2ccccc2)cc1)N1CCC2(CC1)C(=O)N(c1ccccc1)C2c1ccccn1 (stereo not shown) |  | 6.59 | pIC50 [3]: 6.85
CC(C)c1ccc(NC(=O)N2CCC3(CC2)C(=O)N(c2cncnc2)C3c2ccccn2)cc1 (stereo not shown) |  | 6.52 | pIC50 [3]: 6.60
COc1ccc(Cl)cc1NC(=O)N1CCC2(CC1)C(=O)N(c1ccccc1)C2c1ccccc1 (stereo not shown) |  |  | pKi [4]: 5.20
O=C(Nc1ccccc1C(F)(F)F)N1CCC2(CC1)C(=O)N(c1ccccc1)C2c1ccccc1 (stereo not shown) |  |  | pKi [4]: 5.09
Cc1cccc(C)c1NC(=O)N1CCC2(CC1)C(=O)N(c1ccccc1)C2c1ccccc1 (stereo not shown) |  |  | pKi [4]: 5.09
O=C(Nc1cccc2ccccc12)N1CCC2(CC1)C(=O)N(c1ccccc1)C2c1ccccc1 (stereo not shown) |  |  | pKi [4]: 5.60
Cc1c(Cl)cccc1NC(=O)N1CCC2(CC1)C(=O)N(c1ccccc1)C2c1ccccc1 (stereo not shown) [drawing 414] | 6.72 |  | 
